Measurements reported in patent US20230114241A1, “METHODS OF TREATING EPILEPSY USING THE SAME” (Trevena, Inc., priority 2019, published 2023).

These compounds were tested against human sphingosine-1-phosphate receptor 1 (S1P1) (Homo sapiens, UniProt P21453) (assay: Inhibition of cAMP production (HTRF cAMP HiRange), S1P1 CHO-K1 cells). Conditions: inhibition of cAMP production; potency; read-out: hS1P1 CAMP pEC50 (converted).
Assay type: cell-based
How it was run: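 Intracellular cAMP changes read by TR-FRET (HTRF HiRange, 1 h room temperature) after 30 min compound exposure at 37 °C. Cells: overnight-plated CHO-K1 stably expressing tagged human S1P1 with EA-β-arrestin2. Responses normalized to fingolimod.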

human sphingosine-1-phosphate receptor 1 (S1P1), sequence (P21453 whole entry): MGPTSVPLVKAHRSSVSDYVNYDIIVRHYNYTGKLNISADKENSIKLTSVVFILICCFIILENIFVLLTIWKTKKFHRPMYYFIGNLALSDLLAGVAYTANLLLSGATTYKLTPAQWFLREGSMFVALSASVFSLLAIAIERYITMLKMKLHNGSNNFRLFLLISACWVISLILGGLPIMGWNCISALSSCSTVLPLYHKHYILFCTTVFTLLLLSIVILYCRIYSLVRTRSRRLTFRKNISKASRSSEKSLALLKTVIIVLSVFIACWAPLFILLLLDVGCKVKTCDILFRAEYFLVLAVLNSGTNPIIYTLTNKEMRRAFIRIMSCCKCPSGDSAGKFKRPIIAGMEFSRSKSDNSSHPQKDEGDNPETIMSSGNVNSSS

EC50 [nM] | SMILES
> 316 | CCc1ncc(-c2noc(-c3ccc4c(c3)nnn4C(C)C)n2)cn1 [Compound 135, 5-[3-(2-ethylpyrimidin-5-yl)-1,2,4-oxadiazol-5-yl]-1-(propan-2-yl)-1H-1,2,3-benzotriazole]
> 316 | COc1cc(C)c(-c2noc(-c3ccc4c(c3)nnn4C(C)C)n2)c(OC)c1 [Compound 136, 5-[3-(2,4-dimethoxy-6-methylphenyl)-1,2,4-oxadiazol-5-yl]-1-(propan-2-yl)-1H-1,2,3-benzotriazole]
< 316 | CCC1(CC)CC(=O)c2cc(-c3nsc(-c4cccnc4)n3)ccc2O1 [Compound 137, 2,2-diethyl-6-(5-(pyridin-3-yl)-1,2,4-thiadiazol-3-yl)chroman-4-one]
< 316 | COc1ccccc1-c1nc(-c2ccc3c(c2)nnn3C(C)C)ns1 [Compound 138, 5-[5-(2-methoxyphenyl)-1,2,4-thiadiazol-3-yl]-1-(propan-2-yl)-1H-1,2,3-benzotriazole]
< 316 | Cc1ccccc1-c1noc(-c2ccc3c(c2)nnn3CC(C)(C)O)n1 [Compound 139, 2-methyl-1-{5-[3-(2-methylphenyl)-1,2,4-oxadiazol-5-yl]-1H-1,2,3-benzotriazol-1-yl}propan-2-ol]
< 316 | Cc1ccsc1-c1noc(-c2ccc3c(c2)nnn3CC(C)(C)O)n1 [Compound 140]
< 316 | C=CCNc1ccc(-c2nc(-c3ccc4[nH]ncc4c3)no2)cc1C#N [Compound 141, 5-(3-(1H-indazol-5-yl)-1,2,4-oxadiazol-5-yl)-2-(allyl-amino)benzonitrile]
> 316 | CCC1(CC)CC(=O)c2cc(-c3nsc(-c4ccc5c(c4)nnn5C(C)C)n3)ccc2O1 [Compound 143, 2,2-diethyl-6-(5-(1-isopropyl-1H-benzo[d][1,2,3]triazol-5-yl)-1,2,4-thiadiazol-3-yl)chroman-4-one]
< 316 | CCC1(CC)CC(=O)c2cc(-c3nc(-c4ccnc(F)c4)no3)ccc2O1 [Compound 146, 2,2-diethyl-6-(3-(2-fluoropyridin-4-yl)-1,2,4-oxadiazol-5-yl)chroman-4-one]
< 316 | C=CCNc1ccc(-c2nc(-c3ccc(NS(C)(=O)=O)cc3)no2)cc1C#N [Compound 149, N-(4-(5-(4-(allylamino)-3-cyanophenyl)-1,2,4-oxadiazol-3-yl)phenyl) methanesulfonamide]
< 316 | C=CCNc1ccc(-c2nc(-c3ccc4c(c3)nnn4C(C)C)no2)cc1C#N [Compound 150, 2-(allylamino)-5-(3-(1-isopropyl-1H-benzo[d][1,2,3]triazol-5-yl)-1,2,4-oxadiazol-5-yl)benzonitrile]
> 316 | CCC1(CC)CC(=O)c2cc(-c3nc(-c4ccc(NC)cc4)no3)ccc2O1 [Compound 153, 2,2-diethyl-6-(3-(4-(methylamino)phenyl)-1,2,4-oxadiazol-5-yl)chroman-4-one]
< 316 | Cc1cc(-c2nc(-c3ccc4c(c3)nnn4C(C)C)no2)cc(C)n1 [Compound 156, 5-(2,6-dimethyl-pyridin-4-yl)-3-(1-isopropyl-1H-benzo[d][1,2,3]triazol-5-yl)-1,2,4-oxadiazole]
> 316 | Cc1cc(C)cc(-c2noc(-c3ccc4c(c3)nnn4C3CCCCC3)n2)c1 [Compound 158, 1-cyclohexyl-5-[3-(3,5-dimethylphenyl)-1,2,4-oxadiazol-5-yl]-1H-1,2,3-benzotriazole]
> 316 | CC(C)n1nnc2cc(-c3nc(-c4ccc5ccccc5n4)no3)ccc21 [Compound 168, 2-{5-[1-(propan-2-yl)-1H-1,2,3-benzotriazol-5-yl]-1,2,4-oxadiazol-3-yl}quinoline]
> 316 | CC(C)n1nnc2cc(-c3nc(-c4ccc(Cl)s4)no3)ccc21 [Compound 170, 5-[3-(5-chlorothiophen-2-yl)-1,2,4-oxadiazol-5-yl]-1-(propan-2-yl)-1H-1,2,3-benzotriazole]
> 316 | Cc1ccccc1C(C)c1noc(-c2ccc3c(c2)nnn3C(C)C)n1 (stereo not drawn) [Compound 172, 5-{3-[1-(2-methyl-phenyl)ethyl]-1,2,4-oxadiazol-5-yl}-1-(propan-2-yl)-1H-1,2,3-benzotriazole]
< 316 | COc1ccccc1-c1noc(-c2ccc3c(c2)nnn3C2CC2)n1 [Compound 173, 1-cyclopropyl-5-[3-(2-methoxyphenyl)-1,2,4-oxadiazol-5-yl]-1H-1,2,3-benzotriazole]
< 316 | c1cc(-c2noc(-c3ccc4c(c3)nnn4C3CCCC3)n2)ccn1 [Compound 174, 1-cyclopentyl-5-[3-(pyridin-4-yl)-1,2,4-oxadiazol-5-yl]-1H-1,2,3-benzotriazole]
< 316 | Cc1ccccc1-c1noc(-c2ccc3c(c2)nnn3C2CCCC2)n1 [Compound 175, 1-cyclopentyl-5-[3-(2-methylphenyl)-1,2,4-oxadiazol-5-yl]-1H-1,2,3-benzotriazole]
> 316 | O=C1CC2(CCCC2)Oc2ccc(-c3nc(-c4ccncc4)no3)cc21 [Compound 176, 6-[3-(pyridin-4-yl)-1,2,4-oxadiazol-5-yl]-3,4-dihydrospiro[1-benzopyran-2,1′-cyclopentane]-4-one]
< 316 | C=CCNc1ccc(-c2nc(-c3ccc4[nH]cnc4c3)no2)cc1C#N [Compound 177, 5-(3-(1H-benzo[d]imidazol-5-yl)-1,2,4-oxadiazol-5-yl)-2-(allylamino)benzonitrile]
> 316 | CCC1(CC)CC(=O)c2cc(-c3nnc(-c4ccccc4OC)s3)ccc2O1 [Compound 178, 2,2-diethyl-6-(5-(2-methoxyphenyl)-1,3,4-thiadiazol-2-yl)chroman-4-one]
< 316 | CCC1(CC)CC(=O)c2cc(-c3nc(-c4ccc(C(N)=O)cc4)no3)ccc2O1 [Compound 179, 4-(5-(2,2-diethyl-4-oxochroman-6-yl)-1,2,4-oxadiazol-3-yl)benzamide]
> 316 | CC(C)n1nnc2cc(C(=O)Nc3noc4ccccc34)ccc21 [Compound 181, N-(benzo[d]isoxazol-3-yl)-1-isopropyl-1H-benzo[d][1,2,3]triazole-5-carboxamide]
< 316 | Cc1ccccc1-c1noc(-c2ccc3c(c2)nnn3CC(F)F)n1 [Compound 182, 1-(2,2-difluoroethyl)-5-[3-(2-methylphenyl)-1,2,4-oxadiazol-5-yl]-1H-1,2,3-benzotriazole]
< 316 | CC(C)n1nnc2cc(-c3nc(-c4ccccc4Br)co3)ccc21 [Compound 183, 5-[4-(2-bromophenyl)-1,3-oxazol-2-yl]-1-(propan-2-yl)-1H-1,2,3-benzotriazole]
< 316 | CCC1(CC)CC(=O)c2cc(-c3nc(-c4ccc(C(=O)NC)cc4)no3)ccc2O1 [Compound 185, 4-(5-(2,2-diethyl-4-oxochroman-6-yl)-1,2,4-oxadiazol-3-yl)-N-methylbenzamide]
> 316 | COCC1(COC)CC(=O)c2cc(-c3nc(-c4cccnc4)no3)ccc2O1 [Compound 186, 2,2-bis(methoxy-methyl)-6-[3-(pyridin-3-yl)-1,2,4-oxadiazol-5-yl]-3,4-dihydro-2H-1-benzopyran-4-one]
> 316 | CCC1(CC)CC(=O)c2cc(-c3nc(-c4ccccc4O)no3)ccc2O1 [Compound 187, 2,2-diethyl-6-[3-(2-hydroxyphenyl)-1,2,4-oxadiazol-5-yl]chroman-4-one]
